What all share (format): cell-based
In experiment [1] the test system is human lymphoma cell line Raji. The experiment is described as follows: Caspase cascade activation (EC50), Raji. The conditions noted are these: RAJI cells, read-out: caspase potency (EC50) RAJI. An outline of the steps:
(§1)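 Fluorogenic DEVD-R110 cleavage at 485/530 nm gives the read-out, taken 3 h after substrate addition and corrected by the control's T=0 background. Compound-treated over control net RFU ratio was fitted sigmoidally for EC50. Cells had been treated 48 h at 0.016 to 10 μM final.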

Experiment [2] relates to human B cell lymphoblastoid cell line Ramos. The experiment is described as follows: Inhibition of cell proliferation (GI50), Ramos. The settings on record: Ramos cells, 48 h, CellTiter-Glo. How it is done: (§2) Human breast cancer cell lines T-47D, human hepatocellular carcinoma cell line SNU398, human colon carcinoma cell line HCT116, human lung cancer cell line H1299, human leukemia cell line K562, human lymphoma cell line Raji, human B cell lymphoblastoid cell line Ramos, and human Burkitt's lymphoma cell line Namalwa were grown and harvested as in Example 100. An aliquot of […] of cells (4.4×10^4 cells/mL) was added to a well of a 96-well microtiter plate containing 5 μL of a 10% DMSO in RPMI-1640 media solution containing 10 nM to 100 μM of 3-(2-chlorophenyl)-6-(3,4-methylenedioxyphenyl)-7H-[1,2,4]triazolo[3,4-b][1,3,4]thiadiazine (1 nM to 10 μM final). An aliquot of 45 μL of cells was added to a well of a 96-well microtiter plate containing 5 μL of a 10% DMSO in RPMI-1640 media solution without compound as the control sample for maximal cell proliferation (LMax). The samples were mixed by agitation and then incubated at 37° C. for 48 h in a 5% CO2-95% humidity incubator. After incubation, the samples were removed from the incubator and 25 μL of CellTiter-Glo™ reagent (Promega) was added. The samples were mixed by agitation and incubated at room temperature for 10-15 min. Plates were then read using a luminescent plate reader (Model SPECTRAfluor Plus, Tecan) to give Ltest values.
(§3) The samples were mixed by agitation and then incubated at 37° C. for 0.5 h in a 5% CO2-95% humidity incubator. After incubation, the samples were removed from the incubator and 25 μL of CellTiter-Glo™ reagent (Promega) was added. The samples were mixed by agitation and incubated at […] 10-15 min at room temperature in a 5% CO2-95% humidity incubator. Fluorescence was read as above, (LStart) defining luminescence for initial cell number used as baseline in GI50 determinations.
(§4) Calculation: GI50 (dose for 50% inhibition of cell proliferation) is the concentration where [(Ltest−LStart)/(LMax−LStart)]=0.5.
In general terms: In ATP-based viability assays light output follows the ATP content of the culture.

For experiment [3] the test system is unchanged. Briefly: Caspase cascade activation (EC50), Ramos. The conditions noted are these: RAMOS cells, read-out: caspase potency (EC50) RAMOS. An outline of the steps: as §1
Experiment [4] has as its system human hepatocellular carcinoma cell line SNU398. The experiment is described as follows: Caspase cascade activation (EC50), SNU398. The conditions noted are these: SNU398 cells, caspase cascade activation, read-out: caspase potency (EC50) SNU398. The procedure, abridged: as §1
Experiment [5] deals with human Burkitt's lymphoma cell line Namalwa. Briefly: Caspase cascade activation (EC50), Namalwa. The conditions noted are these: Namalwa cells, caspase cascade activation, read-out: caspase potency (EC50) Namalwa. An outline of the steps: as §1
Experiment [6] concerns human breast cancer cell line T-47D. The experiment is described as follows: Caspase cascade activation (EC50), T-47D. The conditions noted are these: T47D cells, caspase cascade activation, read-out: caspase potency (EC50) T47D. An outline of the steps:
as §1

The subject of experiment [7] is human Burkitt's lymphoma cell line Namalwa. The experiment is described as follows: Inhibition of cell proliferation (GI50), Namalwa. The settings on record: Namalwa cells, 48 h, CellTiter-Glo. How it is done: as §2, §3, §4
Experiment [8] concerns human lymphoma cell line Raji. Briefly: Inhibition of cell proliferation (GI50), Raji. The conditions noted are these: Raji cells, 48 h, CellTiter-Glo. How it is done: as §2, §3, §4
Experiment [9] concerns human leukemia cell line K562. The experiment is described as follows: Inhibition of cell proliferation (GI50), K562. The settings on record: K562 cells, 48 h, CellTiter-Glo. How it is done:
as §2, §3, §4

Experiment [10] deals with human colon carcinoma cell line HCT116. The experiment is described as follows: Caspase cascade activation (EC50), HCT116. The conditions noted are these: HCT116 cells, caspase cascade activation, read-out: caspase potency (EC50) HCT116. An outline of the steps:
as §1

The test system is the same in experiment [11]. The experiment is described as follows: Inhibition of cell proliferation (GI50), HCT116. The settings on record: HCT 116 cells, 48 h, CellTiter-Glo. How it is done: as §2, §3, §4
Setting [12] is: Homo sapiens, Burkitts lymphoma cell.

Structures are written as SMILES. Structures can show the parent of a compound that is named as a salt. Where two headings read alike, the source gives them in different places.

As to `COc1ccccc1-c1nnc2n1N=C(c1ccc(N3CCCC3)cc1)CS2` [Example 24, 3-(2-Methoxyphenyl)-6-(4-(pyrrolidin-1-yl)phenyl)-7H-[1,2,4]triazolo[3,4-b][1,3,4]thiadiazine], the EC50 in experiment [1] (Homo sapiens) was 107 nM; in experiment [3] (Homo sapiens), 62 nM; in experiment [4] (Homo sapiens, SNU-398) it was 41 nM; in [5] (setting [12]), 35 nM; in [6] (Homo sapiens) it was 91 nM; in experiment [10] (Homo sapiens, HCT-116), 62 nM. The GI50 in [2] (Homo sapiens) came to 16 nM; in experiment [7] (setting [12]) it was 64 nM; in experiment [8] (Homo sapiens), 15 nM; in [9] (Homo sapiens) it was 17 nM; in experiment [11] (Homo sapiens), 41 nM.

`COc1ccc(C2=Nn3c(nnc3-c3cccc(C)c3)SC2)cc1` [Example Q2]: the half-maximal effective concentration (EC50) in experiment [1] (Homo sapiens) was determined as 121 nM; in [3] (Homo sapiens), 65 nM; in experiment [4] (Homo sapiens, SNU-398), 61 nM; in experiment [5] (setting [12]) it was 80 nM; in experiment [6] (Homo sapiens), 503 nM; in experiment [10] (Homo sapiens, HCT-116), 100 nM. For the same molecule, the GI50 in experiment [2] (Homo sapiens) was found to be 33 nM; in experiment [7] (setting [12]) it was 112 nM; in [8] (Homo sapiens), 587 nM; in [9] (Homo sapiens), 37 nM; in experiment [11] (Homo sapiens), 359 nM.

Consider `COc1ccccc1-c1nnc2n1N=C(c1ccc(O)cc1)CS2` [Example 7, 6-(4-Hydroxyphenyl)-3-(2-methoxyphenyl)-7H-[1,2,4]triazolo[3,4-b][1,3,4]thiadiazine hydrobromide], for which the EC50 amounted to 478 nM in [1] (Homo sapiens); 262 nM in [3] (Homo sapiens); 148 nM in experiment [4] (Homo sapiens, SNU-398); 253 nM in experiment [5] (setting [12]); 173 nM in experiment [6] (Homo sapiens); 280 nM in experiment [10] (Homo sapiens, HCT-116). Further, the 50% growth inhibitory concentration (GI50) in experiment [2] (Homo sapiens) turned out to be 176 nM; in experiment [7] (setting [12]), 579 nM; in [8] (Homo sapiens), 1000 nM; in experiment [9] (Homo sapiens) it was 219 nM; in [11] (Homo sapiens) it was 1180 nM.

For `COc1ccc(-c2nnc3n2N=C(c2ccc(N(C)C)cc2)CS3)cc1OC` [Example 30, 6-(4-Dimethylminophenyl)-3-(3,4-dimethoxyphenyl)-7H-[1,2,4]triazolo[3,4-b][1,3,4]thiadiazine], the EC50 in experiment [1] is 64 nM; in experiment [3], 57 nM; in experiment [4] it was 119 nM; in experiment [5] it was 55 nM; in experiment [6] it was 360 nM; in experiment [10], 221 nM. Moreover, the concentration for 50% growth inhibition (GI50) was determined as 100 nM in [2]; 102 nM in experiment [7]; 157 nM in experiment [8]; 50 nM in experiment [9]; 126 nM in [11].

In the case of `COc1ccc(C2=Nn3c(nnc3-c3cccc(F)c3)SC2)cc1` [Example C3], the EC50 in experiment [1] (Homo sapiens) is 247 nM; in [3] (Homo sapiens) it was 152 nM; in experiment [4] (Homo sapiens, SNU-398) it was 126 nM; in experiment [5] (setting [12]) it was 132 nM; in experiment [6] (Homo sapiens) it was 1710 nM; in experiment [10] (Homo sapiens, HCT-116) it was 424 nM. Besides, the GI50 is 100 nM in experiment [2] (Homo sapiens); 112 nM in experiment [7] (setting [12]); 130 nM in [8] (Homo sapiens); 63 nM in [9] (Homo sapiens); 852 nM in experiment [11] (Homo sapiens).

As for `COc1ccc(C2=Nn3c(nnc3-c3cccc(Br)c3)SC2)cc1` [Example I2, 3-(3-Bromophenyl)-6-(4-methoxyphenyl)-7H-[1,2,4]triazolo[3,4-b][1,3,4]thiadiazine], the EC50 in experiment [1] (Homo sapiens) is 523 nM; in [3] (Homo sapiens), 379 nM; in experiment [4] (Homo sapiens, SNU-398), 329 nM; in experiment [5] (setting [12]), 629 nM; in experiment [6] (Homo sapiens), 905 nM; in [10] (Homo sapiens, HCT-116), 612 nM. In addition, the GI50 stood at 119 nM in experiment [2] (Homo sapiens); 400 nM in experiment [7] (setting [12]); 176 nM in experiment [8] (Homo sapiens); 96 nM in [9] (Homo sapiens); 376 nM in experiment [11] (Homo sapiens).

With `COc1cc(-c2nnc3n2N=C(c2ccc(C)cc2)CS3)cc(OC)c1O` [Example 13, 3-(3,5-Dimethoxy-4-hydroxyphenyl)-6-(4-methylphenyl)-7H-[1,2,4]triazolo[3,4-b][1,3,4]thiadiazine hydrobromide], the EC50 was 52 nM in experiment [1] (Homo sapiens); 69 nM in experiment [3] (Homo sapiens); 101 nM in [4] (Homo sapiens, SNU-398); 73 nM in [5] (setting [12]); 625 nM in [6] (Homo sapiens); 189 nM in experiment [10] (Homo sapiens, HCT-116). Besides, the GI50 in [2] (Homo sapiens) was found to be 50 nM; in experiment [7] (setting [12]), 18 nM; in [8] (Homo sapiens) it was 97 nM; in experiment [9] (Homo sapiens), 51 nM; in experiment [11] (Homo sapiens), 165 nM.

As to `CCN(CC)c1ccc(C2=Nn3c(nnc3-c3ccc(OC)cc3OC)SC2)cc1` [Example 27, 6-(4-Diethylaminophenyl)-3-(2,4-dimethoxyphenyl)-7H-[1,2,4]triazolo[3,4-b][1,3,4]thiadiazine], the 50% effective concentration (EC50) in experiment [1] (Homo sapiens) was 46 nM; in experiment [3] (Homo sapiens), 55 nM; in [4] (Homo sapiens, SNU-398) it was 47 nM; in [5] (setting [12]) it was 31 nM; in [6] (Homo sapiens), 44 nM; in experiment [10] (Homo sapiens, HCT-116), 55 nM. Also, the GI50 in experiment [2] (Homo sapiens) stood at 1 nM; in [7] (setting [12]) it was 2 nM; in [8] (Homo sapiens) it was 3 nM; in experiment [9] (Homo sapiens) it was 10 nM; in [11] (Homo sapiens), 23 nM.

For the molecule `CCOc1ccc(C2=Nn3c(nnc3-c3ccccc3Br)SC2)cc1` [Example A3], the EC50 in [1] (Homo sapiens) is 268 nM; in experiment [3] (Homo sapiens), 125 nM; in experiment [4] (Homo sapiens, SNU-398), 243 nM; in experiment [5] (setting [12]), 104 nM; in experiment [6] (Homo sapiens) it was 1080 nM; in [10] (Homo sapiens, HCT-116), 314 nM. Also, the 50% growth inhibitory concentration (GI50) in [2] (Homo sapiens) is 17 nM; in experiment [7] (setting [12]), 79 nM; in experiment [8] (Homo sapiens) it was 103 nM; in [9] (Homo sapiens) it was 41 nM; in experiment [11] (Homo sapiens), 361 nM.

Consider `CCN(CC)c1ccc(C2=Nn3c(nnc3-c3cc(OC)cc(OC)c3)SC2)cc1` [Example 26, 6-(4-Diethylaminophenyl)-3-(3,5-dimethoxyphenyl)-7H-[1,2,4]triazolo[3,4-b][1,3,4]thiadiazine], for which the 50% effective concentration (EC50) in [1] (Homo sapiens) amounted to 154 nM; in experiment [3] (Homo sapiens) it was 73 nM; in experiment [4] (Homo sapiens, SNU-398), 114 nM; in [5] (setting [12]), 106 nM; in experiment [6] (Homo sapiens), 297 nM; in experiment [10] (Homo sapiens, HCT-116) it was 280 nM. Besides, the GI50 in [2] (Homo sapiens) came out at 20 nM; in experiment [7] (setting [12]) it was 16 nM; in [8] (Homo sapiens), 17 nM; in experiment [9] (Homo sapiens), 20 nM; in experiment [11] (Homo sapiens), 20 nM.

For `CCN(CC)c1ccc(C2=Nn3c(nnc3-c3ccccc3OC)SC2)cc1` [Example 23, 6-(4-Diethylaminophenyl)-3-(2-methoxyphenyl)-7H-[1,2,4]triazolo[3,4-b][1,3,4]thiadiazine], the EC50 in experiment [1] (Homo sapiens) came to 27 nM; in experiment [3] (Homo sapiens), 27 nM; in experiment [4] (Homo sapiens, SNU-398), 18 nM; in experiment [5] (setting [12]), 15 nM; in experiment [6] (Homo sapiens), 32 nM; in experiment [10] (Homo sapiens, HCT-116) it was 26 nM. Moreover, the GI50 in experiment [2] (Homo sapiens) came out at 3 nM; in experiment [7] (setting [12]), 7 nM; in experiment [8] (Homo sapiens), 2 nM; in experiment [9] (Homo sapiens), 2 nM; in experiment [11] (Homo sapiens), 13 nM.

As a reminder, the EC50 is the concentration at which the effect is half-maximal. A word on the GI50: it is the concentration at which growth is held to half of that of the control. A low value points to more potent growth inhibition.

For the origin of these results see patent publication US20080045514A1 (Cytovia, Inc., priority 2006, published 2008).
